For 16 compounds, Kd and EC50 results are on record in patent publication US10947252B2, “Inhibitors of KEAP1-Nrf2 protein-protein interaction” (Janssen Pharmaceutica NV, priority 2018, dated 2021).

In assay [1] the target is Kelch domain of human KEAP1 (321-624 aa) (Homo sapiens (Human), UniProt Q14145). In words: KEAP1 KELCH ThermoFluor binding assay.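 Note: Ligand-induced melting temperature shift of E. coli-expressed KEAP1 Kelch protein, Kd estimated from concentration-response curves of ΔTm.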 Particulars: KEAP Kelch […], 1,8-ANS, pH 7.0, average of results obtained, read-out: Tf Kd. Background: DSF heats the sample and reads unfolding from a dye or from intrinsic fluorescence.
Chain of Kelch domain of human KEAP1 (321-624 aa) (Q14145 321-624): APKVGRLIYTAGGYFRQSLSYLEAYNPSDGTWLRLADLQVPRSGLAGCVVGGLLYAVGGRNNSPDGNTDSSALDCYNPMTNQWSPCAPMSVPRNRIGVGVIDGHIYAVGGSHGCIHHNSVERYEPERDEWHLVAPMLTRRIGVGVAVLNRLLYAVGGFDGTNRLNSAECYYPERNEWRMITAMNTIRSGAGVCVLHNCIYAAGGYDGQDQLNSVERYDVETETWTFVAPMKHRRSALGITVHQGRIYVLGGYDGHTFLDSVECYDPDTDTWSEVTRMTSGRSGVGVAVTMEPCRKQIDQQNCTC
The test system of assay [2] is Glo-Response ARE-luc2P HEK293 cell line. The assay is described as follows: ARE luciferase reporter cell-based assay.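 Note: luciferase signal tracks Nrf2 activation of the ARE once compounds disrupt KEAP1-Nrf2 binding, read with One-Glo reagent, DMSO serving as low control.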 The settings on record: Homo sapiens, HEK293, 24 h, average of results obtained.

Each structure is given as a SMILES string.

A word on the Kd: it is the free concentration of one partner at which half of the binding sites on the other are occupied at equilibrium, for simple one-to-one binding. In general, EC50 refers to the concentration giving half of the maximal effect. A low value points to a more potent agent. As to `Cc1cnc2c(c1)S(=O)(=O)N(Cc1cc([C@@H](CC(=O)O)c3ccn4c(C(F)(F)F)nnc4c3C)cnc1C)CC1(CC1)O2` (single isomer, unassigned) [Example 563, (*S)-3-(8-Methyl-3-(trifluoromethyl)-[1,2,4]triazolo[4,3-a]pyridin-7-yl)-3-(6-methyl-5-((8′-methyl-1′,1′-dioxidospiro[cyclopropane-1,4′-pyrido[2,3-b][1,4,5]oxathiazepin]-2′(3′H)-yl)methyl)pyridin-3-yl)propanoic Acid], the Kd in assay [1] stood at 21 nM. For the same compound, the EC50 in assay [2] was > 20000 nM.

In the case of `Cc1ncc([C@H](CC(=O)O)c2ccn3c(C(F)(F)F)nnc3c2C)cc1CN1CC2(CCOCC2)Oc2ncccc2S1(=O)=O` (single isomer, unassigned) [Example 564, (*R)-3-(5-((1′,1′-Dioxido-2,3,5,6-tetrahydrospiro[pyran-4,4′-pyrido[2,3-b][1,4,5]oxathiazepin]-2′(3′H)-yl)methyl)-6-methylpyridin-3-yl)-3-(8-methyl-3-(trifluoromethyl)-[1,2,4]triazolo[4,3-a]pyridin-7-yl)propanoic Acid], the Kd in assay [1] amounted to 323 nM. Besides, the EC50 in assay [2] is > 20000 nM.

Consider `Cc1cnc2c(c1)S(=O)(=O)N(Cc1cc([C@H](CC(=O)O)c3ccn4c(C(F)(F)F)nnc4c3C)cnc1C)CC1(CC1)O2` (single isomer, unassigned) [Example 565, (*R)-3-(8-Methyl-3-(trifluoromethyl)-[1,2,4]triazolo[4,3-a]pyridin-7-yl)-3-(6-methyl-5-((8′-methyl-1′,1′-dioxidospiro[cyclopropane-1,4′-pyrido[2,3-b][1,4,5]oxathiazepin]-2′(3′H)-yl)methyl)pyridin-3-yl)propanoic Acid], for which, in assay [1], the Kd was 59.4 nM. Also, in assay [2], the EC50 was > 20000 nM.

Take `Cc1ncc([C@H](c2ccn3c(C(F)(F)F)nnc3c2C)C(C)(C)C(=O)O)cc1CN1CC2(CCOCC2)Oc2ncccc2S1(=O)=O` (single isomer, unassigned) [Example 570, (*S)-3-(5-((1′,1′-Dioxido-2,3,5,6-tetrahydrospiro[pyran-4,4′-pyrido[2,3-b][1,4,5]oxathiazepin]-2′(3′H)-yl)methyl)-6-methylpyridin-3-yl)-2,2-dimethyl-3-(8-methyl-3-(trifluoromethyl)-[1,2,4]triazolo[4,3-a]pyridin-7-yl)propanoic Acid]: the Kd in assay [1] was < 1 nM. For the same compound, the EC50 in assay [2] came out at 1120 nM.

On to `Cc1ncc([C@@H](c2ccn3c(C(F)(F)F)nnc3c2C)C(C)(C)C(=O)O)cc1CN1CC2(CCOCC2)Oc2ncccc2S1(=O)=O` (single isomer, unassigned) [Example 571, (*R)-3-(5-((1′,1′-dioxido-2,3,5,6-tetrahydrospiro[pyran-4,4′-pyrido[2,3-b][1,4,5]oxathiazepin]-2′(3′H)-yl)methyl)-6-methylpyridin-3-yl)-2,2-dimethyl-3-(8-methyl-3-(trifluoromethyl)-[1,2,4]triazolo[4,3-a]pyridin-7-yl)propanoic Acid], for which the Kd in assay [1] was found to be 5850 nM. Besides, the EC50 in assay [2] is > 20000 nM.

For the compound `Cc1cnc2c(c1)S(=O)(=O)N(Cc1cc([C@@H](c3ccn4c(C(F)F)nnc4c3C)C(C)(C)C(=O)O)ccc1C)CC1(CCOCC1)O2` (single isomer, unassigned) [Example 576, (*S)-3-(3-(Difluoromethyl)-8-methyl-[1,2,4]triazolo[4,3-a]pyridin-7-yl)-2,2-dimethyl-3-(4-methyl-3-((8′-methyl-1′,1′-dioxido-2,3,5,6-tetrahydrospiro[pyran-4,4′-pyrido[2,3-b][1,4,5]oxathiazepin]-2′(3′H)-yl)methyl)phenyl)propanoic Acid], the Kd in assay [1] is < 1 nM. The compound also came in with an EC50 in assay [2] of 2.34 nM.

Take `Cc1cnc2c(c1)S(=O)(=O)N(Cc1cc([C@H](c3ccn4c(C(F)F)nnc4c3C)C(C)(C)C(=O)O)ccc1C)CC1(CCOCC1)O2` (single isomer, unassigned) [Example 577, (*R)-3-(3-(Difluoromethyl)-8-methyl-[1,2,4]triazolo[4,3-a]pyridin-7-yl)-2,2-dimethyl-3-(4-methyl-3-((8′-methyl-1′,1′-dioxido-2,3,5,6-tetrahydrospiro[pyran-4,4′-pyrido[2,3-b][1,4,5]oxathiazepin]-2′(3′H)-yl)methyl)phenyl)propanoic Acid]: in assay [1], the Kd stood at 718 nM. This compound returned an EC50 in assay [2] of 768 nM.

Regarding `Cc1ccc([C@@H](c2ccn3c(C(F)F)nnc3c2C)C(C)(C)C(=O)O)cc1CN1CC2(CCOCC2)Oc2nc(OCCN3CCOCC3)ccc2S1(=O)=O` (single isomer, unassigned) [Example 579, (*S)-3-(3-(Difluoromethyl)-8-methyl-[1,2,4]triazolo[4,3-a]pyridin-7-yl)-2,2-dimethyl-3-(4-methyl-3-((7′-(2-morpholinoethoxy)-1′,1′-dioxido-2,3,5,6-tetrahydrospiro[pyran-4,4′-pyrido[2,3-b][1,4,5]oxathiazepin]-2′(3′H)-yl)methyl)phenyl)propanoic Acid], the Kd in assay [1] was < 1 nM. In assay [2], this compound came in with an EC50 of 27.8 nM.

For `Cc1ccc([C@H](c2ccn3c(C(F)F)nnc3c2C)C(C)(C)C(=O)O)cc1CN1CC2(CCOCC2)Oc2nc(OCCN3CCOCC3)ccc2S1(=O)=O` (single isomer, unassigned) [Example 580, (*R)-3-(3-(Difluoromethyl)-8-methyl-[1,2,4]triazolo[4,3-a]pyridin-7-yl)-2,2-dimethyl-3-(4-methyl-3-((7′-(2-morpholinoethoxy)-1′,1′-dioxido-2,3,5,6-tetrahydrospiro[pyran-4,4′-pyrido[2,3-b][1,4,5]oxathiazepin]-2′(3′H)-yl)methyl)phenyl)propanoic Acid], the Kd in assay [1] turned out to be 1640 nM. For the same compound, the EC50 in assay [2] was determined as 3240 nM.

Turning to `COc1ccc2c(n1)OC1(CCOCC1)CN(Cc1cc([C@@H](c3ccn4c(C(F)F)nnc4c3C)C(C)(C)C(=O)O)ccc1C)S2(=O)=O` (single isomer, unassigned) [Example 582, (*S)-3-(3-(Difluoromethyl)-8-methyl-[1,2,4]triazolo[4,3-a]pyridin-7-yl)-3-(3-((7′-methoxy-1′,1′-dioxido-2,3,5,6-tetrahydrospiro[pyran-4,4′-pyrido[2,3-b][1,4,5]oxathiazepin]-2′(3′H)-yl)methyl)-4-methylphenyl)-2,2-dimethylpropanoic Acid], the Kd in assay [1] was < 1 nM. In assay [2], the EC50 was 1.43 nM.

For the compound `COc1ccc2c(n1)OC1(CCOCC1)CN(Cc1cc([C@H](c3ccn4c(C(F)F)nnc4c3C)C(C)(C)C(=O)O)ccc1C)S2(=O)=O` (single isomer, unassigned) [Example 583, (*R)-3-(3-(Difluoromethyl)-8-methyl-[1,2,4]triazolo[4,3-a]pyridin-7-yl)-3-(3-((7′-methoxy-1′,1′-dioxido-2,3,5,6-tetrahydrospiro[pyran-4,4′-pyrido[2,3-b][1,4,5]oxathiazepin]-2′(3′H)-yl)methyl)-4-methylphenyl)-2,2-dimethylpropanoic Acid], the Kd in assay [1] came out at 1610 nM. The EC50 in assay [2] turned out to be 766 nM.

For `Cc1cnc2c(c1)S(=O)(=O)N(Cc1cc([C@H](c3ccn4c(C(F)(F)F)nnc4c3C)C(C)(C)C(=O)O)cnc1C)CC1(CCOCC1)O2` (single isomer, unassigned) [Example 585, (*S)-2,2-Dimethyl-3-(8-methyl-3-(trifluoromethyl)-[1,2,4]triazolo[4,3-a]pyridin-7-yl)-3-(6-methyl-5-((8′-methyl-1′,1′-dioxido-2,3,5,6-tetrahydrospiro[pyran-4,4′-pyrido[2,3-b][1,4,5]oxathiazepin]-2′(3′H)-yl)methyl)pyridin-3-yl)propanoic Acid], the Kd in assay [1] was < 1 nM. The EC50 in assay [2] was determined as 253 nM.

As for `Cc1cnc2c(c1)S(=O)(=O)N(Cc1cc([C@@H](c3ccn4c(C(F)(F)F)nnc4c3C)C(C)(C)C(=O)O)cnc1C)CC1(CCOCC1)O2` (single isomer, unassigned) [Example 586, (*R)-2,2-Dimethyl-3-(8-methyl-3-(trifluoromethyl)-[1,2,4]triazolo[4,3-a]pyridin-7-yl)-3-(6-methyl-5-((8′-methyl-1′,1′-dioxido-2,3,5,6-tetrahydrospiro[pyran-4,4′-pyrido[2,3-b][1,4,5]oxathiazepin]-2′(3′H)-yl)methyl)pyridin-3-yl)propanoic Acid], the Kd in assay [1] was 6380 nM. Also, the EC50 in assay [2] is > 20000 nM.

`Cc1cnc2c(c1)S(=O)(=O)N(Cc1cc([C@@H](c3ccn4c(C(F)(F)F)nnc4c3C)C(C)(C)C(=O)O)ncc1C)CC1(CC1)O2` (single isomer, unassigned) [Example 588, (*S)-2,2-Dimethyl-3-(8-methyl-3-(trifluoromethyl)-[1,2,4]triazolo[4,3-a]pyridin-7-yl)-3-(5-methyl-4-((8′-methyl-1′,1′-dioxidospiro[cyclopropane-1,4′-pyrido[2,3-b][1,4,5]oxathiazepin]-2′(3′H)-yl)methyl)pyridin-2-yl)propanoic Acid]: the Kd in assay [1] was < 1 nM. In assay [2], this compound registered an EC50 of 7.64 nM.

As to `Cc1cnc2c(c1)S(=O)(=O)N(Cc1cc([C@H](c3ccn4c(C(F)(F)F)nnc4c3C)C(C)(C)C(=O)O)ncc1C)CC1(CC1)O2` (single isomer, unassigned) [Example 589, (*R)-2,2-Dimethyl-3-(8-methyl-3-(trifluoromethyl)-[1,2,4]triazolo[4,3-a]pyridin-7-yl)-3-(5-methyl-4-((8′-methyl-1′,1′-dioxidospiro[cyclopropane-1,4′-pyrido[2,3-b][1,4,5]oxathiazepin]-2′(3′H)-yl)methyl)pyridin-2-yl)propanoic Acid], the Kd in assay [1] worked out at 1450 nM. In assay [2], this compound came in with an EC50 of 1970 nM.

Regarding `Cc1cnc([C@@H](c2ccn3c(C(F)(F)F)nnc3c2C)C(C)(C)C(=O)O)cc1CN1CC2(CC2)Oc2nc(OCCN3CCCC3)c(C)cc2S1(=O)=O` (single isomer, unassigned) [Example 590, (*S)-2,2-Dimethyl-3-(8-methyl-3-(trifluoromethyl)-[1,2,4]triazolo[4,3-a]pyridin-7-yl)-3-(5-methyl-4-((8′-methyl-1′,1′-dioxido-7′-(2-(pyrrolidin-1-yl)ethoxy)spiro[cyclopropane-1,4′-pyrido[2,3-b][1,4,5]oxathiazepin]-2′(3′H)-yl)methyl)pyridin-2-yl)propanoic Acid], in assay [1], the Kd is < 1 nM. In assay [2], this compound returned a half-maximal effective concentration (EC50) of 33.2 nM.
